What all share (experiment): TGFα-shedding assay-based GPCR screening with chimeric Gα subunit proteins
Holding throughout (assay type): cell-based

Test [1] has as its target T1, 348 GPCRs (Homo sapiens, UniProt O95136).
T1 construct: expressed in transfected cells; host or cells: HEK293A
Particulars: 10µM, Favipiravir 100μM.

Test [2] has as its target T2, 348 GPCRs (Homo sapiens, UniProt Q6QNK2).
T2 construct: expressed in transfected cells; host or cells: HEK293A
T2 sequence (Q6QNK2 26-874): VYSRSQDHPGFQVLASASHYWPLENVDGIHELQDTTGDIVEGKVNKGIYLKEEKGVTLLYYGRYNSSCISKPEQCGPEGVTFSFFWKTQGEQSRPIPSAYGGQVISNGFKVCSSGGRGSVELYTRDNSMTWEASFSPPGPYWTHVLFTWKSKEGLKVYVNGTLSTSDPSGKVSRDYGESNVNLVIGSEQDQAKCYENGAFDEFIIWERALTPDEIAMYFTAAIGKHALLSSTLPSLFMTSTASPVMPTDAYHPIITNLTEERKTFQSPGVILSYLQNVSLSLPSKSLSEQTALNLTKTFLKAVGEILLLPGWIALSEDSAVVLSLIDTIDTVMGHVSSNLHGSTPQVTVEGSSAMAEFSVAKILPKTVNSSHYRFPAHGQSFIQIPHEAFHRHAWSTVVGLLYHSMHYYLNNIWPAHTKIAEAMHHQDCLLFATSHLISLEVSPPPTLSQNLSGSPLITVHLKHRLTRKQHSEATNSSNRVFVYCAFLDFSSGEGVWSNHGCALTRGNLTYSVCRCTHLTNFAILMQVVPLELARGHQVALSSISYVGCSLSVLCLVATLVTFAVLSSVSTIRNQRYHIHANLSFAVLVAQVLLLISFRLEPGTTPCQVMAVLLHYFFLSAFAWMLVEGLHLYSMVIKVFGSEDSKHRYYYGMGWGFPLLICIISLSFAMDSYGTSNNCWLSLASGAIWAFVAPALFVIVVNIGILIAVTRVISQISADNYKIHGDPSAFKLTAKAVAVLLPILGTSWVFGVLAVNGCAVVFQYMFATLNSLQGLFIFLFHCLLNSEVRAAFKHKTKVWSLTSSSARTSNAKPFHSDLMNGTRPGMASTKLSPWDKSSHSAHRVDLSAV
Particulars: 10µM, Favipiravir 100μM.

Test [3] concerns the target 348 GPCRs (Homo sapiens, UniProt P41145). Particulars: read-out: % GPCR activation compared to TPA, OPRK1 (opioid receptor, kappa 1 (KOR)); 10µM, Favipiravir 100μM.
Test [4] has as its target 348 GPCRs (Homo sapiens, UniProt O43193). The note with it: 10µM, Favipiravir 100μM.
Test [5] deals with T3, 348 GPCRs (Homo sapiens, UniProt Q6NV75).
T3 construct: expressed in transfected cells; host or cells: HEK293A
T3 sequence (Q6NV75 whole entry): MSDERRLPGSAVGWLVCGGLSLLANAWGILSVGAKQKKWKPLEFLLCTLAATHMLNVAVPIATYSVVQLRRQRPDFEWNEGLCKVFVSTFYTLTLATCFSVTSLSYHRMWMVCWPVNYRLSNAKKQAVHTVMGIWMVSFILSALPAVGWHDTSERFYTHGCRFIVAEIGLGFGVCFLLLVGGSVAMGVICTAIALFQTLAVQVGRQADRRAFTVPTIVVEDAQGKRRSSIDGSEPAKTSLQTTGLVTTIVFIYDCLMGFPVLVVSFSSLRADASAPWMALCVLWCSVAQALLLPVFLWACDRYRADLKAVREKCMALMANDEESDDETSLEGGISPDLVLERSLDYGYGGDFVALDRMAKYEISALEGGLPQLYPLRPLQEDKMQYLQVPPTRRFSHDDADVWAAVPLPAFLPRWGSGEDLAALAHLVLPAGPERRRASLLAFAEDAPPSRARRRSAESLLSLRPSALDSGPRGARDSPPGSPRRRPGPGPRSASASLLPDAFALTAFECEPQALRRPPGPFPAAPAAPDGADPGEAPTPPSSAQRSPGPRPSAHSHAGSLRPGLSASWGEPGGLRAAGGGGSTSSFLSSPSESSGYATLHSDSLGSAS
Particulars: 10µM, Favipiravir 100μM.

For test [6], the target named is T4, 348 GPCRs (Homo sapiens, UniProt P51679).
T4 construct: expressed in transfected cells; host or cells: HEK293A
T4 sequence (P51679 1-360): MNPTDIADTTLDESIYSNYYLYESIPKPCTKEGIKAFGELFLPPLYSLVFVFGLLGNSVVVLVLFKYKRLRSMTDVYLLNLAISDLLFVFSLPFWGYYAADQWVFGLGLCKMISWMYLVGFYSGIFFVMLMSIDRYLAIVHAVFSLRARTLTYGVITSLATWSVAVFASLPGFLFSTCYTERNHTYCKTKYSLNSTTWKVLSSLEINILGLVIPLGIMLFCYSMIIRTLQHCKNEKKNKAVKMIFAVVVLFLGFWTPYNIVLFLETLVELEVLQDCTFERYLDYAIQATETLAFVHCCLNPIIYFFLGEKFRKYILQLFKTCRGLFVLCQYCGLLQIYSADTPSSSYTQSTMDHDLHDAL
Particulars: 10µM, Favipiravir 100μM.

Test [7] has as its target T5, 348 GPCRs (Homo sapiens, UniProt Q13324).
T5 construct: expressed in transfected cells; host or cells: HEK293A
T5 sequence (Q13324 1-411): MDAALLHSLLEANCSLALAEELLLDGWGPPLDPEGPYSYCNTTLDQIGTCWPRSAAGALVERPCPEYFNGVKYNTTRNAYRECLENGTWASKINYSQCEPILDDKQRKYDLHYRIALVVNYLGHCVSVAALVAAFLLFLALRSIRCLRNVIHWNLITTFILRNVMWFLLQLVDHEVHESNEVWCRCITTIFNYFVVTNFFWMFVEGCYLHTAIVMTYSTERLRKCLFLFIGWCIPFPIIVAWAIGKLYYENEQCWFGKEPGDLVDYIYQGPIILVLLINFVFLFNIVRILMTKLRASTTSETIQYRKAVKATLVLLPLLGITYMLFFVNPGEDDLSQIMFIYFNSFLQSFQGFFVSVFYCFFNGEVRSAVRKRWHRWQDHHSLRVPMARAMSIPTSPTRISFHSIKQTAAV

In test [8] the target is T6, 348 GPCRs (Homo sapiens, UniProt Q01718).
T6 construct: expressed in transfected cells; host or cells: HEK293A
T6 sequence (Q01718 whole entry): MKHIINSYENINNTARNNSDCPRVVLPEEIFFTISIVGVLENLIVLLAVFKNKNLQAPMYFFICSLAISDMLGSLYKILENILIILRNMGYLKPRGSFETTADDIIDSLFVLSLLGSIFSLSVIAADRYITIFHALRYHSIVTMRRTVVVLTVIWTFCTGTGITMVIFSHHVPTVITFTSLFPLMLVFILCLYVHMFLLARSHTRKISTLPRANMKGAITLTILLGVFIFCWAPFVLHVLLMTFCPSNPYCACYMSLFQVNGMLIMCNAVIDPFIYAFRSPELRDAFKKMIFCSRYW

Test [9] addresses T7, 348 GPCRs (Homo sapiens, UniProt P59542).
T7 construct: expressed in transfected cells; host or cells: HEK293A
T7 sequence (P59542 1-299): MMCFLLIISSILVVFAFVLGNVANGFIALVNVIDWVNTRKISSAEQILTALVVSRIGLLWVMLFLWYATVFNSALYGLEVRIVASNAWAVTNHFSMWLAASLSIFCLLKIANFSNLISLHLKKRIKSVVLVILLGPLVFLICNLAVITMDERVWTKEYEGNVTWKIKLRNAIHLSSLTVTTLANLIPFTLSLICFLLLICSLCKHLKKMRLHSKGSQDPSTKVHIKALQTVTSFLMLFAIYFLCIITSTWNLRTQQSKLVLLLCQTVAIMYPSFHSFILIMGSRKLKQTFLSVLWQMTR
Particulars: 10µM, Favipiravir 100μM.

Where [10] appears, read: S1PR2 (sphingosine-1-phosphate receptor 2), read-out: % GPCR activation compared to TPA.
Setting [11] is: GPR133 (G protein-coupled receptor 133), read-out: % GPCR activation compared to TPA.
Setting [12] is: MLNR (motilin receptor), read-out: % GPCR activation compared to TPA.
The mark [13] stands for this setting: GPR153 (G protein-coupled receptor 153), read-out: % GPCR activation compared to TPA.
Setting [14] is: CCR4 (C-C motif chemokine receptor 4), read-out: % GPCR activation compared to TPA.
Setting [15] is: TAS2R19 (taste receptor, type 2, member 19), read-out: % GPCR activation compared to TPA.
Setting [16] is: read-out: % GPCR activation compared to TPA, S1PR2 (sphingosine-1-phosphate receptor 2).
Where [17] appears, read: read-out: % GPCR activation compared to TPA, GPR133 (G protein-coupled receptor 133).
Setting [18] is: read-out: % GPCR activation compared to TPA, MLNR (motilin receptor).
Where [19] appears, read: read-out: % GPCR activation compared to TPA, GPR153 (G protein-coupled receptor 153).
Setting [20] is: read-out: % GPCR activation compared to TPA, CCR4 (C-C motif chemokine receptor 4).
The mark [21] stands for this setting: read-out: % GPCR activation compared to TPA, GPCR CRHR2 (corticotropin releasing hormone receptor 2).
[22] abbreviates: read-out: % GPCR activation compared to TPA, GPCR MC2R (melanocortin 2 receptor).
The mark [23] stands for this setting: read-out: % GPCR activation compared to TPA, TAS2R19 (taste receptor, type 2, member 19).
Setting [24] is: GPCR CRHR2 (corticotropin releasing hormone receptor 2), read-out: % GPCR activation compared to TPA.
[25] abbreviates: GPCR MC2R (melanocortin 2 receptor), read-out: % GPCR activation compared to TPA.

Molecules are shown by their SMILES. Read-outs that look alike come from different tables or passages of the source.

T1 sequence (O95136 whole entry): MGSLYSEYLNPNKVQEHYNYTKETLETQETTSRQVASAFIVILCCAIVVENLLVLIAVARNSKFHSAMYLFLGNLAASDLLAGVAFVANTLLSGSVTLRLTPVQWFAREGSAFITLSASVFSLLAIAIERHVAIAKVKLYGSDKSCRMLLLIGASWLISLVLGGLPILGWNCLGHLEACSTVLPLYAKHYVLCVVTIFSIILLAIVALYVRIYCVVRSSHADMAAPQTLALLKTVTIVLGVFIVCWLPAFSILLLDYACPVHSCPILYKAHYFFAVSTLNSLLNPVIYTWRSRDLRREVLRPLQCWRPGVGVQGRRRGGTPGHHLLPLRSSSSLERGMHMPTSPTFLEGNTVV
348 GPCRs (Homo sapiens, UniProt O43193), sequence (O43193 whole entry): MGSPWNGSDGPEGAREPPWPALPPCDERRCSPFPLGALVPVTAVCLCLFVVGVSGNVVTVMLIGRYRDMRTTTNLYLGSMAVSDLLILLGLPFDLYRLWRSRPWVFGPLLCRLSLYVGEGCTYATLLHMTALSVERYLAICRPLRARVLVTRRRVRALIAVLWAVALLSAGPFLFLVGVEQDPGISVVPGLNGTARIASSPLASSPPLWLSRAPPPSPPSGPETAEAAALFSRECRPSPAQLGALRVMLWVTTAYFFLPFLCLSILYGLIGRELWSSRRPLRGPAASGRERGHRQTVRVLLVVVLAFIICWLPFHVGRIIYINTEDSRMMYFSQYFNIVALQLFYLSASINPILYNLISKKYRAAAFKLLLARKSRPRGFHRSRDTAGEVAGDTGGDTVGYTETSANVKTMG
348 GPCRs (Homo sapiens, UniProt P41145), sequence (P41145 whole entry): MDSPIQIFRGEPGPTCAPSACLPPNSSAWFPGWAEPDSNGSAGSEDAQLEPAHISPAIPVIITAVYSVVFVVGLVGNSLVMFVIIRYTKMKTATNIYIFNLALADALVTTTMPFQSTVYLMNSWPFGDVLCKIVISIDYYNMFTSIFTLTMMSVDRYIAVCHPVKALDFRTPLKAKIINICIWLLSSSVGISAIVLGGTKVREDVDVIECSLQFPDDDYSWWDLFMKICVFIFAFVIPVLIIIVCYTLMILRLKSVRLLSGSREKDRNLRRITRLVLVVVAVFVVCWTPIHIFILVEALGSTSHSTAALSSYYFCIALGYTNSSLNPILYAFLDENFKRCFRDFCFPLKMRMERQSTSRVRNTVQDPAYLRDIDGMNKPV

For the molecule `NC(=O)c1nc(F)cnc1O` [favipiravir, 6-fluoro-3-hydroxy-2-pyrazinecarboxamide], the activation at 10 µM is -1.8% at 348 GPCRs [1] (setting [10]) and 0.731% on 348 GPCRs [5] (setting [13]). The activation at 100 µM at 348 GPCRs [2] (setting [11]) was 2.84%; on 348 GPCRs [3], -1.65%; at 348 GPCRs [4] (setting [12]), -4.07%; at 348 GPCRs [6] (setting [14]), 0.85%; on 348 GPCRs [7] (GPCR CRHR2 (corticotropin releasing hormone receptor 2), 100μM, read-out: % GPCR activation compared to TPA), -0.529%; on 348 GPCRs [8] (GPCR MC2R (melanocortin 2 receptor), 100μM, read-out: % GPCR activation compared to TPA), -0.849%. For the same molecule, the activation at 100 µM at 348 GPCRs [9] (setting [15]) was -1.32%.
As to `CC(C)OC(=O)[C@H](C)N[P@](=O)(OC[C@H]1O[C@@H](n2ccc(=O)[nH]c2=O)[C@](C)(F)[C@@H]1O)Oc1ccccc1` [sofosbuvir], the activation at 10 µM on 348 GPCRs [1] (setting [16]) was 0.199%; on 348 GPCRs [5] (setting [19]), -14.2%; on 348 GPCRs [7] (setting [21]) it was 2.1%; on 348 GPCRs [8] (setting [22]), -3.14%. Further, the activation at 100 µM at 348 GPCRs [2] (setting [17]) is -82.3%; at 348 GPCRs [3] it was -1.11%; on 348 GPCRs [4] (setting [18]), -0.32%; at 348 GPCRs [6] (setting [20]) it was -2.38%; on 348 GPCRs [9] (setting [23]), -0.561%.
With `CCC(CC)COC(=O)[C@H](C)N[P@](=O)(OC[C@H]1O[C@@](C#N)(c2ccc3c(N)ncnn23)[C@H](O)[C@@H]1O)Oc1ccccc1` [remdesivir], the activation at 10 µM on 348 GPCRs [1] (setting [16]) was -3.06%; on 348 GPCRs [5] (setting [19]), 4.65%; at 348 GPCRs [7] (setting [21]), 1.58%; on 348 GPCRs [8] (setting [22]), -1.06%. The activation at 100 µM is 3.45% at 348 GPCRs [2] (setting [17]); 6.17% at 348 GPCRs [3]; -3.19% at 348 GPCRs [4] (setting [18]); 1.77% at 348 GPCRs [6] (setting [20]); 0.523% at 348 GPCRs [9] (setting [23]).
As to `N#C[C@@]1(c2ccc3c(N)ncnn23)O[C@H](CO)[C@@H](O)[C@H]1O` [GS441524], the activation at 10 µM is -1.37% at 348 GPCRs [1] (setting [10]), -3.34% on 348 GPCRs [5] (setting [13]), 0.656% on 348 GPCRs [7] (setting [24]) and -0.688% at 348 GPCRs [8] (setting [25]). Besides, the activation at 100 µM on 348 GPCRs [2] (setting [11]) is 3.32%; at 348 GPCRs [3] it was -1.93%; at 348 GPCRs [4] (setting [12]) it was -7.84%; at 348 GPCRs [6] (setting [14]) it was -0.385%; at 348 GPCRs [9] (setting [15]), -0.28%.
Consider `CC(C)C(=O)OC[C@H]1O[C@@H](n2ccc(NO)nc2=O)[C@H](O)[C@@H]1O` [molnupiravir], for which the activation at 10 µM at 348 GPCRs [1] (setting [10]) is -2.13%; on 348 GPCRs [5] (setting [13]), -23.6%; at 348 GPCRs [7] (setting [24]) it was -0.005%; on 348 GPCRs [8] (setting [25]), -0.524%. For the same molecule, the activation at 100 µM was -83.1% on 348 GPCRs [2] (setting [11]); -1.39% on 348 GPCRs [3]; -1.09% at 348 GPCRs [4] (setting [12]); 1.67% at 348 GPCRs [6] (setting [14]); -0.811% on 348 GPCRs [9] (setting [15]).

These data come from paper PMC10175918 (Communications Biology, 2023).
